Values of other authors in patent US20070117837A1, “Process for the preparation of amorphous form of a platelet aggregation inhibitor drug” (EGIS GYOGYSZERGYAR RT., priority 2003, published 2007).

Conditions: amorphous form compared with its morphologically uniform crystalline forms

biological availability: better
Compound: CC(C)c1c(C(=O)Nc2ccccc2)c(-c2ccccc2)c(-c2ccc(F)cc2)n1CC[C@@H](O)C[C@@H](O)CC(=O)O [atorvastatine calcium]
